In ChEMBL document CHEMBL3046712, “Molecular simulations of bergenin as a new urease inhibitor” (Med Chem Res, 2012):
pIC50: −log10 of the molar value.

What was measured:
[1] = (§1) Inhibition of Sporosarcina pasteurii urease using urea as substrate after 15 min
Sporosarcina pasteurii = assay: as §1

inhibition (Sporosarcina pasteurii) | Structure (SMILES) | pIC50 [1]
78% | COc1c(O)cc2c(c1O)[C@@H]1O[C@H](CO)[C@@H](O)[C@H](O)[C@H]1OC2=O [BERGENIN] | 4.66
– | NC(N)=S [THIOUREA] | 4.60
